Test results from PMC3199943, “Screening the MayBridge Rule of 3 Fragment Library for Compounds That Interact with the Trypanosoma brucei myo-Inositol-3-Phosphate Synthase and/or Show Trypanocidal Activity” (Molecular Biology International, 2011).
Read-outs that look alike come from different tables or passages of the source.

Tests used:
[1] = target: T1, TbINO1 (Trypanosoma brucei brucei, UniProt Q5QQ46); test: biochemical; assay type: binding
T1 sequence (Q5QQ46 1-528): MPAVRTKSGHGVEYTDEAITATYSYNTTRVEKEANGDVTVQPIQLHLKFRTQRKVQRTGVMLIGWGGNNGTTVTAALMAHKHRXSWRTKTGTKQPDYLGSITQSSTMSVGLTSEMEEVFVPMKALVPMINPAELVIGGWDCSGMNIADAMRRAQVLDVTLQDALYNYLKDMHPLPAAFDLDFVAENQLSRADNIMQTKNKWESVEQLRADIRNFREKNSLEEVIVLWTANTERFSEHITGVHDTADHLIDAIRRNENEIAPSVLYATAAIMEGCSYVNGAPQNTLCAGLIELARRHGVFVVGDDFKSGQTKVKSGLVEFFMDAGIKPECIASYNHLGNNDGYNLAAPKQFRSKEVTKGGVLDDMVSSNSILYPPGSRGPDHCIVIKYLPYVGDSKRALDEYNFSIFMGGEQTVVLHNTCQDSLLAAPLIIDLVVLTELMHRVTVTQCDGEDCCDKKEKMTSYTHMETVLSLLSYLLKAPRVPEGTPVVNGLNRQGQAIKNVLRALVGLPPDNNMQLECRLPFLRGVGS

[2] = test system: HeLa cells; test: cells; conditions: for viability at 500 µM / CC50: Homo sapiens, HeLa; for viability at 500 µM: 65 h; for HeLa Cells Alamar Blue: Supplementary Table 1; for CC50: read-out: HeLa ED50
Method in brief: (§1)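 Alamar Blue read-out after a 5 h dye incubation that followed ~65 h compound exposure. Cells: HeLa or A549, 2 × 10^4/well, DMEM + 10% FCS + 2 mM L-Glutamine.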

[3] = test system: A549 cells; test: Cytotoxicity against A549 cells, Alamar Blue; assay type: cell-based; conditions: Supplementary Table 1, compound 0.5 mM, percentage of controls (n=1); for viability at 500 µM: Homo sapiens, A549, 65 h
Method in brief: as §1

[4] = read-out: Tb Ino1 Tm Shift [˚C]
[5] = read-out: HeLa Cells Alamar Blue
[6] = Supplementary Table 1, compound 1mM, mean ± SD from Boltzman curve fitting
[7] = compound 0.5 mM, percentage of controls, mean ± SD (n=3) or SE (n=2)
[8] = read-out: HeLa Cells Alamar Blue, Supplementary Table 1, compound 0.5 mM, percentage of controls, mean ± SD (n=3) or SE (n=2)
[9] = read-out: HeLa Cells Alamar Blue (% survival)

| SMILES | ΔTm at 1000 µM [1, 4] [°C] | viability at 500 µM [2, 5] [%] | viability at 500 µM [3] [%] | further results |
| --- | --- | --- | --- | --- |
| Cn1ccc2cc(C(=O)O)ccc21 [compound 394, 1‐methyl‐1H‐indole‐5‐carboxylic acid] | 0 | 95 ± 12.2 | 82 | – |
| OCc1cc(F)cc2c1OCOC2 [compound 476, (6‐fluoro‐4H‐1,3‐benzodioxin‐8‐yl)methanol] | – | – | – | Tb Ino1 Tm Shift [˚C] [1, 6]: 0.01 ± 0.07 °C; HeLa Cells Alamar Blue [2, 7]: 102.6 ± 9.4 percentage of controls; A549 Cells Alamar Blue [3]: 78.9 percentage of controls |
| CC1CNC(C)CN1 (stereo not drawn) [compound 36, 2,5‐dimethylpiperazine] | 0.18 ± 0.08 | 91.3 ± 12.1 | 76.6 | – |
| O=C(O)c1ccc2ccccc2n1 [compound 369, 2‐quinolinecarboxylic acid] | – | – | 152 | ΔTm at 1000 µM ([1]; Supplementary Table 1, compound 1mM, mean ± SD from Boltzman curve fitting, read-out: Tb Ino1 Tm Shift [˚C]): 0.1 ± 0.67 °C; viability at 500 µM [2, 8]: 81.3 ± 14.1% |
| CC1(C(=O)O)CC2C=CC1C2 (stereo not drawn) [compound 205, 2‐methylbicyclo[2.2.1]hept‐5‐ene‐2‐carboxylic acid] | – | – | – | Tb Ino1 Tm Shift [˚C] [1, 6]: 0.08 ± 0.08 °C; HeLa Cells Alamar Blue [2, 7]: 92.1 ± 17.2 percentage of controls; A549 Cells Alamar Blue [3]: 53.8 percentage of controls |
| CCOC(=O)c1[nH]c(C)cc1C [compound 330, ethyl 3,5‐dimethyl‐1H‐pyrrole‐2‐carboxylate] | 0.61 ± 0.06 | 122 ± 12.3 | 156 | – |
| Fc1ccc(-n2cccc2)cc1 [compound 276, 1‐(4‐fluorophenyl)‐1H‐pyrrole] | 0.75 ± 0.08 | 104 ± 16.6 | 70.2 | – |
| Clc1ccc2nonc2c1 [compound 225, 5‐chloro‐2,1,3‐benzoxadiazole] | 0.81 ± 0.19 | 91.4 ± 15.1 | 68.9 | – |
| Oc1noc2ccccc12 [compound 112, benzo[d]isoxazol‐3‐ol] | 0.23 ± 0.06 | – | 76.7 | viability at 500 µM [2, 8]: 83 ± 11.2% |
| Cc1ccc(N)nc1 [compound 16, 5‐methylpyridin‐2‐amine] | 0.12 ± 0.06 | 101 ± 1.1 | 89.4 | – |
| COc1ccc(Cl)cc1C(=O)O [compound 508, 5‐chloro‐2‐methoxybenzoic acid] | 0.07 ± 0.07 | 78.4 ± 17.3 | 101 | – |
| Nc1cccc(-n2cccc2)c1 [compound 251, 3‐(1H‐pyrrol‐1‐yl)aniline] | 0.15 ± 0.05 | 80.5 ± 3.4 | 79.8 | – |
| Cc1cccc2c1NCCC2 [compound 166, 8‐methyl‐1,2,3,4‐tetrahydroquinoline] | 0.06 ± 0.07 | 95.5 ± 1.6 | 76 | – |
| Cc1cccc(C(N)=O)c1C [compound 176, 2,3‐dimethylbenzamide] | 0.06 ± 0.07 | 88.2 ± 12.4 | 68.7 | – |
| Cc1csc(C(N)=O)c1 [compound 134, 4‐methylthiophene‐2‐carboxamide] | 0.61 ± 0.07 | 83.1 ± 5.6 | 123 | – |
| COC(=O)c1ccsc1N [compound 242, methyl 2‐aminothiophene‐3‐carboxylate] | 0.34 ± 0.08 | 37 ± 6.1 | 80.5 | – |
| N#Cc1cc(Cl)ccc1O [compound 218, 5‐chloro‐2‐hydroxybenzonitrile] | 0.43 ± 0.07 | 92 ± 11.8 | 67.7 | – |
| O=C(O)c1cncc(-c2ccccc2)c1 [compound 615, 5‐phenylnicotinic acid] | 1.28 ± 0.09 | 80.4 ± 11.7 | 75.6 | – |
| N#Cc1ccccc1OC(F)(F)F [compound 509, 2‐(trifluoromethoxy)benzonitrile] | 0.01 ± 0.08 | 106 ± 16.9 | 110 | – |
| CCOC(=O)Cc1csc(C)n1 [compound 494, ethyl 2‐(2‐methyl‐1,3‐thiazol‐4‐yl)acetate] | 0.99 ± 0.08 | 103 ± 17.9 | 120 | – |
| Nc1cccc(CN2CCCC2)c1 [compound 415, 3‐(pyrrolidin‐1‐ylmethyl)aniline] | 0.34 ± 0.06 | 57.8 ± 4.5 | 107 | – |

| SMILES | ΔTm at 1000 µM [1, 4] [°C] | viability at 500 µM [2, 5] [%] | viability at 500 µM [3] [%] | further results |
| --- | --- | --- | --- | --- |
| O=C1COc2cc(O)ccc21 [compound 182, 6‐hydroxy‐2,3‐dihydrobenzo[b]furan‐3‐one] | – | – | – | Tb Ino1 Tm Shift [˚C] [1, 6]: 0.92 ± 0.09 °C; HeLa Cells Alamar Blue [2, 7]: 119.6 ± 2.4 percentage of controls; A549 Cells Alamar Blue [3]: 65.6 percentage of controls |
| N#Cc1ccc(Oc2ccccn2)cc1 [compound 596, 4‐(pyridin‐2‐yloxy)benzonitrile] | 0.68 ± 0.07 | 97.7 ± 11 | 72.1 | – |
| O=C(O)c1ccoc1 [compound 28, 3-furoic acid] | – | 48.2 ± 11.8 | 111 | ΔTm at 1000 µM ([1]; read-out: TbIno1 Tm shift [°C]): 3.72 ± 0.08 °C; viability at 500 µM [2, 9]: 48.2 ± 11.8% |
| Cc1occc1C(=O)O [compound 75, 2-methyl-3-furoic acid] | – | 63.3 ± 5.9 | 110 | ΔTm at 1000 µM ([1]; read-out: TbIno1 Tm shift [°C]): 3.89 ± 0.07 °C; viability at 500 µM [2, 9]: 63.3 ± 5.9% |
| NC(=S)c1cccc2c1OCCO2 [compound 592, 2,3‐dihydro‐1,4‐benzodioxine‐5‐carbothioamide] | – | – | – | Tb Ino1 Tm Shift [˚C] [1, 6]: 0.18 ± 0.07 °C; HeLa Cells Alamar Blue [2, 7]: 54.3 ± 15.7 percentage of controls; A549 Cells Alamar Blue [3]: 39.8 percentage of controls |
| COC(=O)c1sccc1N [compound 241, methyl 3‐aminothiophene‐2‐carboxylate] | 0.38 ± 0.09 | 94.5 ± 13 | 108 | – |
| Cc1cc(N)[nH]n1 [compound 6, 3‐methyl‐1H‐pyrazol‐5‐amine] | 0.2 ± 0.06 | 102 ± 3.3 | 121 | – |
| O=C(O)c1ccccc1-c1ccco1 [compound 520, 2-(2-furyl)benzoic acid] | – | 73 ± 11.5 | 124 | ΔTm at 1000 µM ([1]; read-out: TbIno1 Tm shift [°C]): 4.29 ± 0.07 °C; viability at 500 µM [2, 9]: 73 ± 11.5%; CC50 [2]: > 20 mM |
| COC(=O)c1ccccc1-n1cccc1 [compound 628, methyl 2‐(1H‐pyrrol‐1‐yl)benzoate] | 0.84 ± 0.08 | 70.4 ± 14 | 85.1 | – |
| NC(=S)c1ccsc1 [compound 148, thiophene‐3‐carbothioamide] | 0.78 ± 0.08 | 92.3 ± 7 | 99.6 | – |
| O=C(O)c1cnccc1C(F)(F)F [compound 553, 4‐(trifluoromethyl)nicotinic acid] | 0.28 ± 0.07 | 102 ± 12.4 | 103 | – |
| CN1CCc2c(sc(N)c2C#N)C1 [compound 581, 2‐amino‐6‐methyl‐4,5,6,7‐tetrahydrothieno[2,3‐c]pyridine‐3‐carbonitrile] | – | – | – | Tb Ino1 Tm Shift [˚C] [1, 6]: 1.39 ± 0.08 °C; HeLa Cells Alamar Blue [2, 7]: 85.8 ± 12.8 percentage of controls; A549 Cells Alamar Blue [3]: 82.2 percentage of controls |
| CC(=O)Nc1ccc2c(c1)CCC2 [compound 400, N1‐(2,3‐dihydro‐1H‐inden‐5‐yl)acetamide] | 0.12 ± 0.07 | 23.9 ± 13.6 | 99.3 | – |
| OCc1ccnc(N2CCCCC2)c1 [compound 568, (2‐piperidinopyrid‐4‐yl)methanol] | 0.03 ± 0.07 | 94.5 ± 18.7 | 103 | – |
| Nc1cccc(C(=O)c2ccccc2)c1 [compound 601, (3‐aminophenyl)(phenyl)methanone] | 0.21 ± 0.06 | 89.2 ± 6.6 | 63.8 | – |
| Cc1cc(C(=O)O)c(-c2ccccc2)o1 [compound 635, 5‐methyl‐2‐phenyl‐3‐furoic acid] | 0.38 ± 0.04 | 17.7 ± 16.2 | 90.1 | – |
| Cc1ccc2cc(CO)ccc2n1 [compound 374, (2‐methyl‐6‐quinolinyl)methanol] | 0.1 ± 0.06 | 53.2 ± 2.6 | 46.3 | – |
| OCc1ccc(-n2cccc2)cc1 [compound 372, [4-(1H-pyrrol-1-yl)phenyl]methanol] | – | 94.9 ± 19.4 | 52.9 | ΔTm at 1000 µM ([1]; read-out: TbIno1 Tm shift [°C]): 3.12 ± 0.04 °C; viability at 500 µM [2, 9]: 94.9 ± 19.4%; CC50 [2]: 3.3 ± 0.21 mM |
| OCc1cccnc1N1CCCCC1 [compound 572, (2‐piperidino‐3‐pyridinyl)methanol] | 1.25 ± 0.09 | 65.1 ± 5.7 | 80.1 | – |
| O=C(O)c1ccnc2ccccc12 [compound 368, quinoline‐4‐carboxylic acid] | 0.33 ± 0.08 | 90.7 ± 7.5 | 90.3 | – |
| Nc1cccc(-c2cccs2)c1 [compound 403, 3‐(2‐thienyl)aniline] | 0.04 ± 0.04 | 49.1 ± 15.7 | 52.3 | – |
